Laboratory results from patent publication US20260000596A1, “SEMI-SYNTHETIC RHAMNOLIPIDS” (The Procter & Gamble Company, priority 2024, published 2026).
≈ marks a conversion by molar mass, not a printed value. Like-named read-outs stand apart in the source and are kept apart here.

Assays:
Assay type in all cases: cell-based
[1] = test system: Escherichia coli ATCC 8739; assay: Minimal Kill Concentration Assay (MKCA), E. coli; conditions: 20-minute contact time; for MBC: Escherichia coli, ATCC8739, 20 min, read-out: E. coli MKC (ppm)
Method: (§1) The MKC assay is a 96 well plate method to determine the minimum concentration of a test material or composition needed to kill Gram-negative and Gram-positive bacteria (Escherichia coli ATCC 8739 and Staphylococcus aureus ATCC 6538, respectively). The bacterial suspensions are prepared from 10× freezer stocks with 15% glycerol. The freezer stocks are centrifuged at 13,000×g (Eppendorf Centrifuge […] No. 541705483) for 1 minute. The supernatant is removed, and the cell pellet is resuspended in 1 mL saline (Sodium chloride solution 0.9%, Cytiva REF: Z1376), and then transferred to 9 mL saline. The target cfu/ml is 10^8, which is confirmed via serial diluting and plating on TSA plates (Tryptic Soy Agar-Sigma-Aldrich Cat #22091). Then 50 μL (25 μL if low on test materials) of bacteria is added to each well of a 96 well 0.5 mL V-Bottom plate (Greiner bio-one REF: 786201) to make a bacteria plate, one separate plate for each bacterium. The dilutions of the test compounds are prepared in a separate 96 well plate. The test compounds are tested at six dilutions in duplicates or with no replication diluted across the entire plate. The test compounds are prepared in Dimethyl Sulfoxide (Sigma Aldrich GR ACS Cat. No: MX1458-6) or sterile water at 2× the intended test concentration, and then serially diluted in the appropriate vehicle 1:2 across the plate using a multichannel. 50 μL (25 μL if low on test materials) from the test compound plate is added to each well in the bacteria plate all at once using an Integra VIAFLOW 96 channel pipette (Model: VIAFLO 96) and the Integra 300 μL Head (Part No. 6103). With addition of the 2× compounds bacteria plate, the compounds are diluted to a 1× test concentration. The addition of the test compounds to the bacteria wells starts the 20-minute contact time. The plates are mixed well using a Mix-Mate (Eppendorf SE). After 20 minutes, 1 μL from each well of the bacteria plate is transferred to premade Tryptic Soy Agar (TSA) plates (OmniTray Cell Culture Treated w/Lid Sterile, Cat. No: 165218) for spot plating using the Integra VIAFLOW 96 with the Integra 12.5 μL head (Part No. 6101). Then 4 μL from each well of the bacteria/compound plate is transferred to another 96 well plate containing 36 μL of neutralizer broth Modified Letheen Broth (BD Difco Letheen Broth, Modified REF 263010). The contact time is stopped at 20 minutes once the compound plate is neutralized. The plates are mixed well using a Mix-Mate and then 1 μL of the neutralizer+sample mix is transferred to a TSA OmniTray plate using the Integra VIAFLOW and Integra 12.5 μL head. The TSA spot plates are then incubated overnight for 20 hours at 37° C. in an Incubator. This process is done for both bacteria species. After overnight incubation, the plates are removed from the incubator and the results recorded by observing which dilutions had bacterial kill/growth. The last dilution that had kill for both replicates is recorded as the MKC. A positive control of Benzalkonium chloride (Sigma Aldrich Cat. No.: 12060-5G) and vehicle controls are always included in the test.

[2] = test system: Staphylococcus aureus ATCC 6538; assay: Minimal Kill Concentration Assay (MKCA), S. aureus; conditions: 20-minute contact time; for minimal kill concentration (20-minute contact): Staphylococcus aureus, ATCC6538, 20 min, read-out: S. aureus MKC (ppm)
Method: as §1

[3] = test system: Staphylococcus aureus ATCC #6538; assay: Minimum Inhibitory Concentration (MIC) Assay with Minimum Biocidal Concentration (MBC); conditions: for MIC / MBC: Staphylococcus aureus, ATCC6538, 24 h; for MIC: read-out: S. aureus MIC (ppm); for S. aureus MIC (ppm) / S. aureus MBC (ppm): Table 1.5; for S. aureus MIC (ppm): >=50% inhibition, 24 hrs at 35° C.; for S. aureus MBC (ppm): no visible growth; for MBC: read-out: S. aureus MBC (ppm)
Method: The Minimum Inhibitory Concentration (MIC) Assay is a 96-well high throughput method that determines the minimum concentration of an active required to inhibit the growth of microorganisms. Organism preparation: Compounds were evaluated against the following microorganisms: Staphylococcus aureus ATCC #6538 (American Type Culture Collection, Manassas, Virginia, USA). To prepare bacteria solutions, bacteria were streaked on Tryptic Soy Agar (TSA) and incubated at 30-35° C. for 18-24 hrs. Confluent growth was transferred to saline (0.85% NaCl) and turbidometrically adjusted to a target concentration of 10^7-10^8 CFU/ml. This inoculum solution was further diluted 1:1000 in Tryptic Soy Broth (pH 7) for assay use. Assay: Two-fold serial dilutions were prepared in Dimethylsulfoxide (DMSO, Thermo Scientific Pierce DMSO, Sequencing Grade) or sterile water for each test sample. In a sterile 96-well plate, each dilution was further diluted in broth inoculum such that each well contained 5% dilution and 95% broth inoculum. Bacteria plates were incubated on an orbital shaker (Heidolph Titramax 1000 Vibrating Platform Shaker, 200-300 rpm) for 24±2 hrs at 35° C. After incubation, the optical density (OD) of each well was measured in a spectrophotometer (Victor Nivo Multimode Plate Reader) at 600 nm. […] To determine the Minimum Biocidal Concentration (MBC), 2 ul from each well was pipetted onto neutralizing agar (Modified Letheen Agar with Tween) and incubated for 24 hrs at 30-35° C. The MBC was determined as the most dilute concentration with no visible growth.

[4] = Table 4, derivatized rhamnolipids, solvent DMSO

Row | SMILES | MBC [1, 4] [µg/mL] | minimal kill concentration (20-minute contact) [2, 4] [µg/mL] | MBC ([3]; Table 5, solvent DMSO) [µg/mL] | MIC ([3]; Table 5, solvent DMSO) [µg/mL] | other results
1 | CCCCCCCC(O)CC(=O)O (racemic) [(±)-3-Hydroxydecanoic acid, reference compound] | – | – | – | – | MBC ([1]; Table 1.4b, solvent water): 753 µg/mL (≈ 4 mM); minimal kill concentration (20-minute contact) ([2]; Table 1.4b, solvent water): 753 µg/mL; MIC [3]: 1130 µg/mL (≈ 6 mM)
2 | CCCCCC(O)CC(=O)O (racemic) [(±)-3-Hydroxyoctanoic acid, reference compound] | – | – | – | – | MBC ([1]; Table 1.4b, solvent water): > 641 µg/mL; minimal kill concentration (20-minute contact) ([2]; Table 1.4b, solvent water): > 641 µg/mL
3 | CCCCCCCCCC(O)CC(=O)O (racemic) [DL-β-Hydroxylauric acid, reference compound] | – | – | – | – | E. coli MKC (ppm) ([1]; Table 1.4b, solvent water): >865 ppm; S. aureus MKC (ppm) ([2]; Table 1.4b, solvent water): >865 ppm; S. aureus MIC (ppm) ([3]; solvent DMSO): 325 ppm; S. aureus MBC (ppm) ([3]; solvent DMSO): 650 ppm
4 | CCCCCCCCCCCC(O)CC(=O)O (racemic) [DL-β-Hydroxymyristic acid, reference compound] | – | – | – | – | E. coli MKC (ppm) ([1]; Table 1.4b, solvent DMSO): 122 ppm; S. aureus MKC (ppm) ([2]; Table 1.4b, solvent DMSO): 244 ppm; S. aureus MIC (ppm) ([3]; solvent DMSO): 365 ppm; S. aureus MBC (ppm) ([3]; solvent DMSO): 731 ppm
5 | CCCCCCCCCCCCCC(O)CC(=O)O (racemic) [DL-β-Hydroxypalmitic acid, reference compound] | – | – | – | – | E. coli MKC (ppm) ([1]; Table 1.4b, solvent DMSO): 136 ppm; S. aureus MKC (ppm) ([2]; Table 1.4b, solvent DMSO): >1090 ppm; S. aureus MIC (ppm) ([3]; solvent DMSO): 102 ppm; S. aureus MBC (ppm) ([3]; solvent DMSO): 204 ppm
6 | CCCCCCCC(CC(=O)NC)O[C@@H]1O[C@@H](C)[C@H](O)[C@@H](O)[C@H]1O[C@H]1O[C@@H](C)[C@@H](O)[C@H](O)[C@@H]1O (stereo partly drawn) [3-(((2R,3R,4R,5R,6S)-4,5-dihydroxy-6-methyl-3-(((2R,3S,4S,5S,6S)-3,4,5-trihydroxy-6-methyltetrahydro-2H-pyran-2-yl)oxy)tetrahydro-2H-pyran-2-yl)oxy)-N-methyldecanamide] | > 4940 | > 4940 | > 1970 | > 1970 | –
7 | CCCCCCCC(CC(=O)NCC(CC)CCCC)O[C@@H]1O[C@@H](C)[C@H](O)[C@@H](O)[C@H]1O[C@@H]1O[C@@H](C)[C@H](O)[C@@H](O)[C@H]1O (stereo partly drawn) [3-(((2R,3R,4R,5R,6S)-4,5-dihydroxy-6-methyl-3-(((2S,3R,4R,5R,6S)-3,4,5-trihydroxy-6-methyltetrahydro-2H-pyran-2-yl)oxy)tetrahydro-2H-pyran-2-yl)oxy)-N-(2-ethylhexyl)decanamide] | > 5920 | 2960 | 592 (≈ 1 mM) | 296 (≈ 0.5 mM) | –
8 | CCCCCCCC(CC(=O)NCCO)O[C@@H]1O[C@@H](C)[C@H](O)[C@@H](O)[C@H]1O[C@@H]1O[C@@H](C)[C@H](O)[C@@H](O)[C@H]1O (stereo partly drawn) [3-(((2R,3R,4R,5R,6S)-4,5-dihydroxy-6-methyl-3-(((2S,3R,4R,5R,6S)-3,4,5-trihydroxy-6-methyltetrahydro-2H-pyran-2-yl)oxy)tetrahydro-2H-pyran-2-yl)oxy)-N-(2-hydroxyethyl)decanamide] | > 5240 | > 5240 | > 2090 | > 2090 | –
9 | CCCCCCCC(CC(=O)N(C)OC)O[C@@H]1O[C@@H](C)[C@H](O)[C@@H](O)[C@H]1O[C@@H]1O[C@@H](C)[C@H](O)[C@@H](O)[C@H]1O (stereo partly drawn) [3-(((2R,3R,4R,5R,6S)-4,5-dihydroxy-6-methyl-3-(((2S,3R,4R,5R,6S)-3,4,5-trihydroxy-6-methyltetrahydro-2H-pyran-2-yl)oxy)tetrahydro-2H-pyran-2-yl)oxy)-N-methoxy-N-methyldecanamide] | > 5240 | > 5240 | > 2090 | 2090 (≈ 4 mM) | –
10 | CCCCCCCC(CC(=O)N(C)C)O[C@@H]1O[C@@H](C)[C@H](O)[C@@H](O)[C@H]1O[C@@H]1O[C@H](C)C(O)[C@@H](O)[C@H]1O (stereo partly drawn) [3-(((2R,3R,4R,5R,6S)-4,5-dihydroxy-6-methyl-3-(((2S,3R,4R,6R)-3,4,5-trihydroxy-6-methyltetrahydro-2H-pyran-2-yl)oxy)tetrahydro-2H-pyran-2-yl)oxy)-N,N-dimethyldecanamide] | > 5070 | > 5070 | > 508 | > 508 | –
11 | CCCCCCCC(CC(=O)O)O[C@@H]1O[C@@H](C)[C@H](O)[C@@H](O)[C@H]1O[C@@H]1O[C@H](C)C(O)[C@@H](O)[C@H]1O (stereo partly drawn) [3-(((2R,3R,4R,5R,6S)-4,5-dihydroxy-6-methyl-3-(((2S,3R,4R,6R)-3,4,5-trihydroxy-6-methyltetrahydro-2H-pyran-2-yl)oxy)tetrahydro-2H-pyran-2-yl)oxy)decanoic acid] | > 4810 | > 4810 | > 1920 | > 1920 | –
12 | CCCCCCCCC[C@@H](O)CC(=O)O [(3R)-3-hydroxydodecanoic acid, reference compound] | – | – | – | – | MBC ([1]; Table 1.4b, solvent water): > 865 µg/mL; minimal kill concentration (20-minute contact) ([2]; Table 1.4b, solvent water): 865 µg/mL
13 | CCCCCCCC(CC(=O)N(CCCC)CCCC)O[C@@H]1O[C@@H](C)[C@H](O)[C@@H](O)[C@H]1O[C@@H]1O[C@@H](C)[C@H](O)[C@@H](O)[C@H]1O (stereo partly drawn) [N,N-dibutyl-3-(((2R,3R,4R,5R,6S)-4,5-dihydroxy-6-methyl-3-(((2S,3R,4R,5R,6S)-3,4,5-trihydroxy-6-methyltetrahydro-2H-pyran-2-yl)oxy)tetrahydro-2H-pyran-2-yl)oxy)decanamide] | 5920 (≈ 10 mM) | 2960 | 296 (≈ 0.5 mM) | 296 (≈ 0.5 mM) | –
14 | CCCCCCCC(CC(=O)NCCO[Si](C)(C)C(C)(C)C)O[C@@H]1O[C@@H](C)[C@H](O)[C@@H](O)[C@H]1O[C@@H]1O[C@@H](C)[C@H](O)[C@@H](O)[C@H]1O (stereo partly drawn) [N-(2-((tert-butyldimethylsilyl)oxy)ethyl)-3-(((2R,3R,4R,5R,6S)-4,5-dihydroxy-6-methyl-3-(((2S,3R,4R,5R,6S)-3,4,5-trihydroxy-6-methyltetrahydro-2H-pyran-2-yl)oxy)tetrahydro-2H-pyran-2-yl)oxy)decanamide] | > 6370 | > 6370 | 637 (≈ 0.999 mM) | 319 (≈ 0.5 mM) | –
15 | CCCCCCCC(CC(=O)NC1CCCCC1)O[C@@H]1O[C@@H](C)[C@H](O)[C@@H](O)[C@H]1O[C@@H]1O[C@@H](C)[C@H](O)[C@@H](O)[C@H]1O (stereo partly drawn) [N-cyclohexyl-3-(((2R,3R,4R,5R,6S)-4,5-dihydroxy-6-methyl-3-(((2S,3R,4R,5R,6S)-3,4,5-trihydroxy-6-methyltetrahydro-2H-pyran-2-yl)oxy)tetrahydro-2H-pyran-2-yl)oxy)decanamide] | > 5620 | > 5620 | > 2250 | > 2250 | –
